Patent US11584727B2, “2-thioxothiazolidin-4-one derivatives active as transthyretin ligands and uses thereof” (BSIM Therapeutics, S.A., priority 2014, dated 2023)
Each block holds one compound with its values, some of them ahead of it.

Key:
[1] = HepG2 cell viability, resazurin reduction assay; type: cell-based; details: human, HepG2 hepatoma cells, approximately 72 hours incubation, read-out: inhibitory dose (ID50), cell viability
Text: Cell viability of HepG2 hepatoma cells was quantified in order to assess the toxicity of the compounds at increasing concentrations. The used assay is described in detail in the “Experimental Evaluation of Cytotoxicity of Compounds using Cell-based Assays” section in “Materials and Methods”. This is a relevant assessment not just to discard potential concerns of liver damage (which is a problem reported for many drugs) but also because of the long-term nature of the treatments that patients suffering from TTR-mediated amyloidoses need to undertake.
Adherent human hepatoma cells HepG2 were cultured in DMEM (Dulbecco's Modified Eagle's Medium) with 10% fetal bovine serum (FBS), 100 U/mL penicillin, […] streptomycin, and 1 mM sodium pyruvate. The cells were grown in 75 cm^2 culture flasks at 37° C., in an atmosphere of 5% CO2, and subcultured twice a week using a trypsin-EDTA solution.
Upon 3 to 4 days of growth and reaching approximately 90% confluence, HepG2 cells were plated in 96-well microplates with cell density of 12×10^3 cells/well and in a volume of 100 μL per well.
The compounds are dissolved in DMSO and subsequently diluted in DMEM (in 9 intermediate […] concentrations). After adhesion of HepG2 cells to the microplates, […] 100 μL of each solution of intermediate compound concentration were added to each well (in quadruplicate). Positive controls were done with 10 wells containing only cells; solvent controls resulted from the analysis of the three highest DMSO concentrations tested and were carried out in triplicate.
After addition of the compounds to the cells, the microplates were incubated for approximately 72 hours at 37° C. in an atmosphere of 5% CO2 until the cell viability assay was performed.
The cell viability of HepG2 cells in the presence of test compounds was assessed by the resazurin reduction assay. Resazurin is a redox indicator that is converted into resorufin through reduction reactions of metabolically active cells. In the oxidized form it presents a purplish blue color, while the reduced form presents a purple-pink color.
A stock solution of 0.01% resazurin in PBS is diluted 1:10 in incomplete RPMI 1640 cell medium (without addition of antibiotics and FBS). After washing the cells with 200 μL PBS containing Ca^2+ and Mg^2+, 200 μL of resazurin 0.001% are added to the wells. Control runs with incomplete RPMI 1640 medium only and (without cells) are done in triplicate. […]
To quantify the reduction of resazurin to resorufin, microplate absorbance readings were taken at two wavelengths, 540 nm (reduced form) and 630 nm (oxidized form), in a Biotek spectrophotometer microplate reader. The percentage of viable cells at each compound concentration is determined using the formula: […]

[2] = target: T1, wild type transthyretin (WT-TTR) (Homo sapiens, UniProt P02766); assay: WT-TTR amyloid fibril formation assay (turbidimetry, acid-induced); type: biochemical; details: pH 4.4, 72 hours
T1 construct: made in house; host or cells: E. coli BL21 (DE3), pET23a plasmid
Method: (§1) The first set of evaluations is based on a fast, stagnant fibril formation assay that is used for the early screening of compounds, be they virtual screening hits or newly synthesized analogues. In this assay, a solution of the compound under test at 1.8, 3.6 or 7.2 μM is added to a solution of TTR at 3.6 μM, so that there is enough compound to bind to either one or both of TTR's binding sites. The pH of the resulting solution is then lowered to 4.4 to promote amyloidogenesis. The process of amyloid fibril formation over time is assessed by turbidimetry measurements at three different wavelengths (405, 450 and 490 nm, or at 550, 600 and 650 nm when the compound absorbs light at the previous wavelengths), using a spectrophotometer endowed with a BioTek microplate reader. The extent of fibril formation of each mixture is determined by normalizing a sample with the protein (TTR), in absence of compounds, which, at the end of 72 hours, represents 100% of amyloid fibril formation. In each experiment, each compound concentration is tested in triplicate. For each compound concentration and incubation time, the arithmetic mean of the triplicate experiments is calculated, as well as the arithmetic mean of the three measured wavelengths. High activity can be defined as a percentage of fibril formation below 10% at compound concentration 7.2 μM (TTR:compound stoichiometry 1:2) and below 40% at 3.6 μM (TTR:compound stoichiometry 1:1).
The in vitro activity of the compounds was assessed through a biochemical assay based on turbidimetry measurements, in which fibril formation is induced by acidification of the solution to pH 4.4 after incubation with the hit compound to be tested. The amount of amyloid fibrils formed is then monitored throughout 72 hours. Further details on this assay are provided in the “Evaluation of amyloid inhibition in vitro” subsection in “Materials and Methods”.
Experimental evaluation of the in vitro activity of virtual screening hits against amyloid fibril formation by TTR was carried out using a biochemical assay based on turbidimetry measurements. In this assay, fibril formation is induced by acidification of the solution to pH 4.4 after incubation with the hit compound to be tested. The amount of amyloid fibrils formed is monitored over 72 hours. Further details on the assay are provided in the “Evaluation of amyloid inhibition in vitro” subsection below.
(§2) Purchased virtual screening hits and all synthesized (optimization) derivatives were dissolved in DMSO to a final concentration of 10.8 mM to provide a primary stock solution. Several secondary stock solutions were prepared in DMSO by dilution of the primary stock solution and the concentrations were chosen depending on the effectiveness of the compound in inhibiting the TTR amyloid fibril formation.
(§3) The fibril formation assay was adapted to run in a high-throughput screening mode. For this purpose, 96-well microplates were used with a final assay volume of 100 μL.
(§4) One microLitre (μL) of different compound secondary stock solutions was added to 50 μL of a 7.2 μM wild type TTR (WT-TTR) or Val122Ile-TTR (V122I-TTR) solutions in 10 miliMolar (mM) sodium phosphate buffer, 100 mM KCl and 1 mM EDTA, pH 7.2, previously dialyzed against the same buffer solution. After 30 minutes of incubation at room temperature, the pH of the mixture was lowered to 4.4 with 49 μL of 200 mM acetate buffer, 100 mM KCl and 1 mM EDTA, pH 4.3.
(§5) The mixtures were incubated at 37° C. during 72 hours. Turbidity at 405 nm, 450 nm and 490 nm (or at 550, 600 and 650 nm when the test compound absorbs light at the previous wavelengths) was measured over time (0, 17, 24, 41, 48, 65 and 72 hours) using a BioTek Microplate Spectrophotometer to evaluate the extent of fibril formation. Immediately before the turbidity measurements, the mixtures were gently shacked during 1 minute to homogenize well and not damage the formed amyloid aggregates and fibrils.

[3] = target: Val122Ile transthyretin (V122I-TTR) (Homo sapiens, UniProt P02766, V142I); assay: V122I-TTR amyloid fibril formation assay (turbidimetry, acid-induced); type: biochemical; details: pH 4.4, 72 hours
Method: as §1, §2, §3, §4
as §5, with “fibrils. The final turbidity was calculated as an average of the three wavelengths measured.” for “fibrils.”
In addition, control samples containing TTR with no inhibitor and 1% DMSO, as well as inhibitor in absence of TTR were tested and analyzed.
The extent of amyloid fibril formation data was normalized to TTR in the absence of inhibitor, assigned to be 100% fibril formation (or 0% amyloid inhibition) at the end of the experiment.
The extent of amyloid fibril formation throughout 72 hours was determined as described in the “Evaluation of amyloid inhibition in vitro” subsection above.
IC50 values were calculated from the inhibition curves obtained by fitting the values by a nonlinear curve method using the OriginPro7 (OriginLab Corporation, USA).

FAP patients = details: 18-month phase-III clinical trial; cited from earlier work
AD/TTR+/− mice = details: cited from earlier work

melting point: 262 to 264 °C
Fibril Formation (%) ([2]; WT-TTR 3.6 μM, 1:1 TTR-compound stoichiometry, 37° C., normalized to no-compound control (100%)): 10%
IC50 ([2]; WT-TTR fixed at 3.6 μM, ten compound concentrations): 1170 ± 30 nM
Fibril Formation (%) ([3]; V122I-TTR 3.6 μM, 37° C.): 19%
IC50 ([3]; V122I-TTR fixed at 3.6 μM, ten compound concentrations): 1610 nM
Structure (SMILES): O=C(O)CN1C(=O)/C(=C/c2cc(Cl)c(O)c(Cl)c2)SC1=S [AT50-A03, (Z)-3-hydroxycarbonylmethyl-5-(3′,5′-dichloro-4′-hydroxyphenylmethylidene)-2-thioxothiazolidin-4-one]
IC50 at 72 h [1]: > 400000 nM

Structure (SMILES): CNC[C@H](O)[C@@H](O)[C@H](O)[C@H](O)CO.O=C(O)c1ccc2nc(-c3cc(Cl)cc(Cl)c3)oc2c1 [Tafamidis meglumine, N-methyl D-(2,3,4,5,6-pentahydroxy-hexyl)-ammonium; 2-(3,5-dichloro-phenyl)-benzoxazole-6-carboxylate]
FAP patients with improvement of symptoms (FAP patients): approximately 60%

Structure (SMILES): O=C(O)c1cc(-c2ccc(F)cc2F)cc(I)c1O [iododiflunisal]
brain Abeta levels and deposition, cognitive function (AD/TTR+/− mice): decreased brain Abeta levels and deposition
